Measurements from US20070092474A1, “Carnitine salt, preliposome which contains it and dermocosmetic formula for topical use based upon said carnitine salt” (priority 2003, published 2007).
“And” between values parts separate entries of the source, which are not always exact repeats. Equal values may be shown once.

System: skin blemishes caused by cellulite and localised adiposity
Test: Plicometry: skin plica thickness measured with a plicometer, dermatological test of the cosmetic gel
Format: in vivo, female volunteers
Conditions: same tests repeated with the single reactant; site and time point of each value not given
Method: A dermatological test was carried out on 25 female volunteers between 18 and 65 years of age, with the backing of the Department of Physiological and Pharmacological Sciences of the university of Pavia. The investigation aimed to check the modification of three anatomical-physiological parameters, qualifying the unaesthetic-functional aspect connected to the manifestation of so-called cellulite and subcutaneous hypertriglyceridaemia: measurement of the skin folds, measurement of the circumference of the thighs, thermographic skin measurement.
The test stretched out over 60 days with the continual daily application of the aforementioned preparation of cosmetic gel. The measurements were carried out after 15, 30 and 60 days. The detail of the test protocol and of the results obtained is shown hereafter.
25 female volunteers aged between 18 and 65, with the presence of skin blemishes caused by cellulite and localised adiposity, were selected according to the following criteria: good general state of health, absence of skin pathologies, not being under medication, commitment not to vary the normal daily routine, no medical history of atopy.
The samples were tested by uniformly applying them on “Glute SX Glute DJ (Femoris Posto SX Femoris Posto DX Femoris Ant. SX Femoris Ant. DX” every day at least once per day for the entire duration of the test.
At the time of inclusion in the study and during the subsequent checks after 15 days (T15), after 30 days (T30) and after 60 days (T60) of treatment the following instrumental measurements were taken: • plicometry (through a plicometer) • thigh circumference (through a measuring tape broken into millimetres) • contact thermography (through liquid crystal thermographic plates).
In particular, the plicometer used in the test constitutes the suitable instrument for measuring the skin plica thickness. Skin plicometry provides numerical data of particular use when the panniculopathic process of the cellulite is associated with localised adiposity.

C[N+](C)(C)CC(O)CC(=O)O (stereo not shown) [Carnitine (II), 3-carboxy-2-hydroxy-propyl trimethyl amine, reference compound]
PLICOMETRY SX, average values: 25.7 and 23.7
